Patent publication US8691864B2, “Agents useful for reducing amyloid precursor protein and treating dementia and methods of use thereof” (priority 2000, dated 2014)

How the values were obtained:
secreted APP = test: ELISA for secreted APP in SHSY5Y cells; assay type: cell-based, human; conditions: 16 hours
SH-SY-5Y Cells = test: MTS toxicity assay in SHSY5Y cells; assay type: cell-based, human

Structure (SMILES) | APP Secretion by SH-SY-5Y Cells (secreted APP; Dose 2 uM) [% vehicle control] | APP Secretion by SH-SY-5Y Cells (secreted APP; Dose 6 uM) [% vehicle control] | APP Secretion by SH-SY-5Y Cells (secreted APP; Dose 20 uM) [% vehicle control] | APP Toxicity SH-SY-5Y Cells (MTS assay) (SH-SY-5Y Cells; Dose 2 uM) [% vehicle control] | APP Toxicity SH-SY-5Y Cells (MTS assay) (SH-SY-5Y Cells; Dose 6 uM) [% vehicle control] | APP Toxicity SH-SY-5Y Cells (MTS assay) (SH-SY-5Y Cells; Dose 20 uM) [% vehicle control]
COc1ccc2c(c1)C(O)(c1ccccc1)C(=O)N2C (stereo not drawn) [MES 9319] | 108.95 | 114.1 | 112.8 | 99.8 | 101.05 | 102.7
COc1ccc2[nH]cc(CCN)c2c1.Cl [MES 9321] | 97.95 | 98.1 | 100.5 | 99.9 | 101.15 | 99.45
COc1ccc2c(c1)C(C)(c1ccccc1)C(=O)N2C (stereo not drawn) [MES 9324] | 110.3 | 95.9 | 99.95 | 102.15 | 100.4 | 98.65
Br.CC1=C(c2ccc(O)cc2)CN2CCC[C@H]2C1.O [MES 9330] | 99.6 | 101.5 | 110.65 | 99.05 | 98.45 | 97.95
Clc1ccc(C2CC3CCC2N3)cn1 (stereo not drawn) [MES 9331] | 95.45 | 102.1 | 106.7 | 100.45 | 99.99 | 98.95
